ChEMBL document CHEMBL1139525, “Targeting and inhibition of cell growth by an engineered dendritic nanodevice” (J Med Chem, 2005)

Columns and labels:
KB = test: Concentration required to completely block the uptake of either G5-FI-FA or G5-FI-FA-MTX dendrimer (30 nM) in FAR expressing KB cells; type: functional, cell-based; conditions: Homo sapiens
[1] = Dissociation constant against folic acid receptor (FAR); Value ranges from 0.1-1 nM; parameters: species or system Homo sapiens

For `Nc1nc(=O)c2nc(CNc3ccc(C(=O)N[C@@H](CCC(=O)O)C(=O)O)cc3)cnc2[nH]1` [FOLIC ACID], the Concentration (KB) was 50 µM and the Kd [1] was 1 nM.
